This test addresses T1, Tyrosine-protein phosphatase non-receptor type 1 (Homo sapiens, UniProt P18031).
T1 sequence (P18031 whole entry): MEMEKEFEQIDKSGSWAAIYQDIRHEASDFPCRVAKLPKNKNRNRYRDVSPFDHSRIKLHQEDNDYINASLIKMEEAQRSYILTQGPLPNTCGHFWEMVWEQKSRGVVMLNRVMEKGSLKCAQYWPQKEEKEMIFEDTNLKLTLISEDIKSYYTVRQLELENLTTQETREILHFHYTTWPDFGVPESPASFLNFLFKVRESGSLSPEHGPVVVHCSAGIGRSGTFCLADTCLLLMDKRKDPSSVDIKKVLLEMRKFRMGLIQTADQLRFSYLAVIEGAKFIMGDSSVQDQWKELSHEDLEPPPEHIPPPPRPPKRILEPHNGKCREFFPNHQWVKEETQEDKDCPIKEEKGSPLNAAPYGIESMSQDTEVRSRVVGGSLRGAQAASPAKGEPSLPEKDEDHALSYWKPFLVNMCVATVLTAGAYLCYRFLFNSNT
In words: Non-competitive reversible inhibition of human PTP1B.

For the compound `CC1(C)C=C2C(=NN(c3ccccc3)C(N)=C2C#N)CO1`, the IC50 by setting is: (read-out: IC50) 5.7 µM; (read-out: pIC50 (converted)) 5.7 µM.

As for `N#CC1=C(N)N(c2ccccc2)N=C2CSCC=C21`, the IC50 reads like this: (read-out: IC50) 1.1 µM; (read-out: pIC50 (converted)) 1.1 µM.

For `CC1(C)C=C2C(=NN(c3cccc(CO)c3)C(N)=C2C#N)CO1`, the IC50 reads like this: (read-out: IC50) 2.4 µM; (read-out: pIC50 (converted)) 2.4 µM.

As to `CC1(C)C=C2C(=NN(c3ccccc3C(F)(F)F)C(N)=C2C#N)CO1`, the IC50 (read-out: IC50) was 3.9 µM and the IC50 (read-out: pIC50 (converted)) was 3.9 µM.

In the case of `CC1(C)C=C2C(=NN(c3cccc(C(F)(F)F)c3)C(N)=C2C#N)CO1`, the IC50 is, setting by setting: (read-out: IC50) 2.8 µM; (read-out: pIC50 (converted)) 2.8 µM.

As to `CCOc1ccc(N2N=C3COC(C)(C)C=C3C(C#N)=C2N)cc1`, the IC50 (read-out: IC50) is 3.2 µM and the IC50 (read-out: pIC50 (converted)) is 3.2 µM.

Consider `CCOc1ccccc1N1N=C2COC(C)(C)C=C2C(C#N)=C1N`, for which the IC50 reads like this: (read-out: IC50) 3.4 µM; (read-out: pIC50 (converted)) 3.4 µM.

For `N#CC1=C(N)N(c2ccccc2)N=C2COCC=C21`, the IC50 runs as follows: (read-out: IC50) 0.35 µM; (read-out: pIC50 (converted)) 0.35 µM.

Take `COC(=O)c1cccc(N2N=C3COC(C)(C)C=C3C(C#N)=C2N)c1`: the IC50 is 2.1 µM (read-out: IC50) and 2.1 µM (read-out: pIC50 (converted)).

`N#CC1=C(N)N(c2ccccc2)N=C2CCCC=C21`: the IC50 (read-out: IC50) was found to be 10.4 µM and the IC50 (read-out: pIC50 (converted)) was 10.4 µM.

With `CC(C)c1ccccc1N1N=C2CSCC=C2C(C#N)=C1N`, the IC50 is 2 µM (read-out: IC50) and 2 µM (read-out: pIC50 (converted)).

In the case of `N#CC1=C(N)N(c2ccc(F)cc2)N=C2CSCC=C21`, the IC50 was 2 µM (read-out: IC50) and 2 µM (read-out: pIC50 (converted)).

As for `N#CC1=C(N)N(c2ccccc2F)N=C2CSCC=C21`, the IC50 is 4.4 µM (read-out: IC50) and 4.4 µM (read-out: pIC50 (converted)).

For `COc1ccc(N2N=C3CSCC=C3C(C#N)=C2N)cc1`, the IC50 (read-out: IC50) was found to be 1.3 µM and the IC50 (read-out: pIC50 (converted)) is 1.3 µM.

Regarding `CC1(C)C=C2C(=NN(c3ccccc3N3CCOCC3)C(N)=C2C#N)CO1`, the IC50 (read-out: IC50) is 2.9 µM and the IC50 (read-out: pIC50 (converted)) was 2.9 µM.

Consider `CC(C)c1cccc(N2N=C3COC(C)(C)C=C3C(C#N)=C2N)c1`, for which the IC50 runs as follows: (read-out: IC50) 8.2 µM; (read-out: pIC50 (converted)) 8.2 µM.

Turning to `CCCCc1ccc(N2N=C3COC(C)(C)C=C3C(C#N)=C2N)cc1`, the IC50 runs as follows: (read-out: IC50) 7 µM; (read-out: pIC50 (converted)) 7 µM.

Consider `CCCCc1ccccc1N1N=C2COC(C)(C)C=C2C(C#N)=C1N`, for which the IC50 runs as follows: (read-out: IC50) 1.5 µM; (read-out: pIC50 (converted)) 1.5 µM.

Consider `CC1(C)C=C2C(=NN(c3ccc(F)cc3)C(N)=C2C#N)CO1`, for which the IC50 by setting is: (read-out: IC50) 4.9 µM; (read-out: pIC50 (converted)) 4.9 µM.

As to `CC1(C)C=C2C(=NN(c3ccccc3F)C(N)=C2C#N)CO1`, the IC50 by setting is: (read-out: IC50) 2.4 µM; (read-out: pIC50 (converted)) 2.4 µM.

Take `CC1(C)C=C2C(=NN(c3cccc(F)c3)C(N)=C2C#N)CO1`: the IC50 (read-out: IC50) is 4.5 µM and the IC50 (read-out: pIC50 (converted)) is 4.5 µM.

On to `CC1(C)C=C2C(=NN(c3ccc(CCO)cc3)C(N)=C2C#N)CO1`, for which the IC50 (read-out: IC50) is 2.9 µM and the IC50 (read-out: pIC50 (converted)) was 2.9 µM.

`COc1ccc(N2N=C3COC(C)(C)C=C3C(C#N)=C2N)cc1`: the IC50 was 2.2 µM (read-out: IC50) and 2.2 µM (read-out: pIC50 (converted)).

For the compound `COc1ccccc1N1N=C2COC(C)(C)C=C2C(C#N)=C1N`, the IC50 was 6.2 µM (read-out: IC50) and 6.19 µM (read-out: pIC50 (converted)).

As for `COc1cccc(N2N=C3COC(C)(C)C=C3C(C#N)=C2N)c1`, the IC50 (read-out: IC50) amounted to 3.6 µM and the IC50 (read-out: pIC50 (converted)) is 3.6 µM.

On to `CC1(C)C=C2C(=NN(c3ccc(Oc4ccccc4)cc3)C(N)=C2C#N)CO1`, for which the IC50 runs as follows: (read-out: IC50) 22.7 µM; (read-out: pIC50 (converted)) 22.7 µM.

In the case of `CC1(C)C=C2C(=NN(c3ccccc3Oc3ccccc3)C(N)=C2C#N)CO1`, the IC50 by setting is: (read-out: IC50) 15.8 µM; (read-out: pIC50 (converted)) 15.8 µM.

Turning to `CC1(C)C=C2C(=NN(c3cccc(Oc4ccccc4)c3)C(N)=C2C#N)CO1`, the IC50 is, setting by setting: (read-out: IC50) 3.9 µM; (read-out: pIC50 (converted)) 3.9 µM.

For `CC(=O)Nc1ccc(N2N=C3COC(C)(C)C=C3C(C#N)=C2N)cc1`, the IC50 runs as follows: (read-out: IC50) 6.1 µM; (read-out: pIC50 (converted)) 6.1 µM.

Turning to `CC(=O)Nc1cccc(N2N=C3COC(C)(C)C=C3C(C#N)=C2N)c1`, the IC50 is 2.3 µM (read-out: IC50) and 2.3 µM (read-out: pIC50 (converted)).

`CC1(C)C=C2C(=NN(c3ccccc3[N+](=O)[O-])C(N)=C2C#N)CO1`: the IC50 (read-out: IC50) was 17.5 µM and the IC50 (read-out: pIC50 (converted)) was 17.5 µM.

For `CCc1ccc(N2N=C3COC(C)(C)C=C3C(C#N)=C2N)cc1`, the IC50 by setting is: (read-out: IC50) 2.8 µM; (read-out: pIC50 (converted)) 2.8 µM.

Take `CCc1ccccc1N1N=C2COC(C)(C)C=C2C(C#N)=C1N`: the IC50 (read-out: IC50) stood at 1.6 µM and the IC50 (read-out: pIC50 (converted)) is 1.6 µM.

Consider `CCc1cccc(N2N=C3COC(C)(C)C=C3C(C#N)=C2N)c1`, for which the IC50 is, setting by setting: (read-out: IC50) 8.2 µM; (read-out: pIC50 (converted)) 8.2 µM.

For `CC1(C)C=C2C(=NN(c3ccc(CO)cc3)C(N)=C2C#N)CO1`, the IC50 (read-out: IC50) amounted to 1.7 µM and the IC50 (read-out: pIC50 (converted)) is 1.7 µM.

On to `CC1(C)C=C2C(=NN(c3ccccc3CO)C(N)=C2C#N)CO1`, for which the IC50 (read-out: IC50) is 11.1 µM and the IC50 (read-out: pIC50 (converted)) was 11.1 µM.

As to `CC(C)c1ccc(N2N=C3CSCC=C3C(C#N)=C2N)cc1`, the IC50 is 5.6 µM (read-out: IC50) and 5.6 µM (read-out: pIC50 (converted)).

Source of the values: ChEMBL document CHEMBL2424609, “In silico accounting of novel pyridazine analogues as h-PTP 1B inhibitors: pharmacophore modelling, atom-based 3D QSAR and docking studies” (Med Chem Res, 2013).
